From US20240317740A1, “NOVEL COMPOUNDS AND THEIR USE” (Debiopharm International S.A., priority 2021, published 2024)
≈ marks a conversion by molar mass, not a printed value.

Legend:
A. baumannii FabI = A. baumannii FabI (Acinetobacter baumannii, UniProt D0CAD5); test: Inhibition of FabI enzyme (NADH consumption rate); type: biochemical; settings: recombinant FabI, 30° C., pH 7.25
Experimental: Inhibition of Fabl enzyme from Acinetobacter baumannii and Escherichia coli was tested by measuring the rate of NADH consumption (Aabsorbance at 340 nm/min) at 30° C. in 96-well plate format using an automated plate reader in the presence or absence of the test compounds. The assay mixture contained 100 mM Tris-HCl, pH 7.25 (A. baumannii) or 7.5 (E. coli), 100 mM ammonium acetate, 0.02% (A. baumannii) or 0.05% (E. coli) Pluronic F-68, 25 μM crotonyl ACP, 50 μM NADH, […] recombinant Fabl protein, and 7.5% DMSO. Test compounds were added at concentrations ranging from 0.17 to 10,000 nM in a final well volume of 100 μl. This dose-response inhibitory assay was performed using a 10-point, serial dilution series for each test compound. IC50 values for each test compound were assigned from logistical sigmoid curve-fitting of the inhibition dose response curves.

E. coli AG100 = test: Broth microdilution MIC assay; type: cell-based; settings: Escherichia coli, CA-MHB, 1% DMSO, 35° C., 20 hours
Experimental: (§1) The antibacterial activity of Fabl inhibitors against select Gram-negative and Gram-positive bacterial species including susceptible and multi-drug resistant A. baumannii, E. coli, K. pneumoniae and S. aureus was tested using the broth microdilution Minimal Inhibitory Concentration (MIC) assay following CLSI guidelines for insoluble compounds. Test articles were serially diluted 2-fold in 100% dimethyl sulfoxide (DMSO) and then diluted 100-fold into cation adjusted Mueller-Hinton broth (CA-MHB) to achieve a 10-point test concentration range in 1% DMSO. Final compound concentrations were 0.016-8 μg/ml for S. aureus or 0.06-32 μg/ml for the Gram-negative species. MIC test plates were then prepared by transferring 100 μl of the final assay medium (test article in CA-MHB, 1% DMSO) into the appropriate wells of a sterile, low binding 96-well polystyrene plate. Direct colony suspension inoculums of the test strains were freshly prepared per CLSI guidelines, and the appropriate test wells were inoculated to achieve a final bacterial cell density of 5×10^5 CFU/ml. Growth control (no test article) and negative control (no bacterial inoculum) wells were also included. Exposure to light was minimized during all stages of assay preparation. MIC test plates were incubated at 35° C. for 20 hours. Bacterial growth was then determined by measuring the optical density at 600 nm (OD600) using a SpectraMax Plus plate-reader spectrophotometer.

S. aureus ATCC 29213 = test: Broth microdilution MIC assay; type: cell-based; settings: Staphylococcus aureus, ATCC29213; CA-MHB, 1% DMSO, 35° C., 20 hours
Experimental: as §1

[1] = test system: A. baumannii ATCC BAA1605; test: Broth microdilution MIC assay; type: cell-based; settings: Acinetobacter baumannii, ATCCBAA1605; CA-MHB, 1% DMSO, 35° C., 20 hours
Experimental: as §1

K. pneumoniae A6030827 = test: Broth microdilution MIC assay; type: cell-based; settings: Klebsiella pneumoniae, CA-MHB, 1% DMSO, 35° C., 20 hours
Experimental: as §1

Chain of A. baumannii FabI (D0CAD5 1-288): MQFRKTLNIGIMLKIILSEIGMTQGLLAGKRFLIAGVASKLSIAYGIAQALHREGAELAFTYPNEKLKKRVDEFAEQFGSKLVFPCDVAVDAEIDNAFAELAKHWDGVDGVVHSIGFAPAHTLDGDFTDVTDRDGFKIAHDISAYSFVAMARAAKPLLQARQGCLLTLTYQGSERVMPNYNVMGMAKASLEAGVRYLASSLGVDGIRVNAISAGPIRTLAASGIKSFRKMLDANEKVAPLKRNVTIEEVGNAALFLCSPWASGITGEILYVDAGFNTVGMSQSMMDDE

Compound | IC50 (A. baumannii FabI) [nM] | MIC (E. coli AG100) [µg/mL] | MIC (S. aureus ATCC 29213) [µg/mL] | MIC [1] [µg/mL] | MIC (K. pneumoniae A6030827) [µg/mL]
Cc1oc2ccccc2c1CN(C)C(=O)/C=C/c1cnc2c(c1)CCC(N1CCCC1)C(=O)N2 (single isomer, unassigned) [Compound 25, (S*,E)-N-methyl-N-((2-methylbenzofuran-3-yl)methyl)-3-(8-oxo-7-(pyrrolidin-1-yl)-6,7,8,9-tetrahydro-5H-pyrido[2,3-b]azepin-3-yl)acrylamide] | < 10 | 8 (≈ 17.4 µM) | ≤ 4 | ≤ 4 | 
Cc1oc2ccccc2c1CN(C)C(=O)/C=C/c1cnc2c(c1)CCC(N1CC[C@@H](O)C1)C(=O)N2 (single isomer, unassigned) [Compound 28, (E)-3-((R*)-7-((R)-3-hydroxypyrrolidin-1-yl)-8-oxo-6,7,8,9-tetrahydro-5H-pyrido[2,3-b]azepin-3-yl)-N-methyl-N-((2-methylbenzofuran-3-yl)methyl)acrylamide] | < 10 |  |  |  | 
Cc1oc2ccccc2c1CN(C)C(=O)/C=C/c1cnc2c(c1)CCC(N1CCCC1)C(=O)N2 (centres unmarked) [Compound 15, (E)-N-methyl-N-[(2-methylbenzofuran-3-yl)methyl]-3-(8-oxo-7-pyrrolidin-1-yl-5,6,7,9-tetrahydropyrido[2,3-b]azepin-3-yl)prop-2-enamide] | < 10 | 16 (≈ 34.9 µM) | ≤ 4 | ≤ 4 | 16 (≈ 34.9 µM)
Cc1oc2ccccc2c1CN(C)C(=O)/C=C/c1cnc2c(c1)N[C@H](C)[C@H](N)C(=O)N2 [Compound 23, (E)-3-((2R,3S)-3-amino-2-methyl-4-oxo-2,3,4,5-tetrahydro-1H-pyrido[2,3-b][1,4]diazepin-8-yl)-N-methyl-N-((2-methylbenzofuran-3-yl)methyl)acrylamide] | < 10 | 8 (≈ 19.1 µM) | ≤ 4 | ≤ 4 | 8 (≈ 19.1 µM)
Cc1oc2ccccc2c1CN(C)C(=O)/C=C/c1cnc2c(c1)CCC(N1CC[C@@H](O)C1)C(=O)N2 (stereo in doubt) [Compound 28, (E)-3-((R*)-7-((R)-3-hydroxypyrrolidin-1-yl)-8-oxo-6,7,8,9-tetrahydro-5H-pyrido[2,3-b]azepin-3-yl)-N-methyl-N-((2-methylbenzofuran-3-yl)methyl)acrylamide] |  | 8 (≈ 16.9 µM) | ≤ 4 | ≤ 4 | 

Next, values leading:

IC50 (A. baumannii FabI) [nM] | MIC (E. coli AG100) [µg/mL] | MIC (S. aureus ATCC 29213) [µg/mL] | MIC [1] [µg/mL] | MIC (K. pneumoniae A6030827) [µg/mL] | Compound
< 10 | 16 (≈ 37 µM) | ≤ 4 | ≤ 4 | 8 (≈ 18.5 µM) | Cc1oc2ccccc2c1CN(C)C(=O)/C=C/c1cnc2c(c1)CCC(N(C)C)C(=O)N2 (centres unmarked) [Compound 13, (E)-3-[7-(dimethylamino)-8-oxo-5,6,7,9-tetrahydropyrido[2,3-b]azepin-3-yl]-N-methyl-N-[(2-methylbenzofuran-3-yl)methyl]prop-2-enamide]
< 10 | ≤ 4 | ≤ 4 | ≤ 4 |  | Cc1oc2ccccc2c1CN(C)C(=O)/C=C/c1cnc2c(c1)CCC(C)(N)C(=O)N2 (single isomer, unassigned) [Compound 39, (S*,E)-3-(7-amino-7-methyl-8-oxo-6,7,8,9-tetrahydro-5H-pyrido[2,3-b]azepin-3-yl)-N-methyl-N-((2-methylbenzofuran-3-yl)methyl)acrylamide]
< 10 | 8 (≈ 19.1 µM) | ≤ 4 | 8 (≈ 19.1 µM) | 8 (≈ 19.1 µM) | CNC1CCc2cc(/C=C/C(=O)N(C)Cc3c(C)oc4ccccc34)cnc2NC1=O (centres unmarked) [Compound 11, (E)-N-methyl-3-(7-(methylamino)-8-oxo-6,7,8,9-tetrahydro-5H-pyrido[2,3-b]azepin-3-yl)-N-((2-methylbenzofuran-3-yl)methyl)acrylamide]
